Measured values: patent publication US12473262B2, “Aryl hydrocarbon receptor activators” (Oregon State University, priority 2019, dated 2025)

Molecular target: aryl hydrocarbon receptor (AhR) (Mus musculus (Mouse), UniProt P30561)
Test: AhR ligand screening: AhRE-luciferase reporter in transfected Hepa1 cells
Assay type: cell-based
Conditions: for Fold @ 1 nM: fold change of luciferase expression at 1 nM test compound relative to vehicle (0.1% DMSO); for Fold @ 100 nM: fold change of luciferase expression at 100 nM test compound relative to vehicle (0.1% DMSO); for Fold @ 10 uM: fold change of luciferase expression at 10 uM test compound relative to vehicle (0.1% DMSO); for Fold relative to benchmark @ 100 nM: luciferase expression at 100 nM test compound relative to 100 nM benchmark compound 11-cl-BBQ
Description: The AhR is a ligand-activated transcription factor that dimerizes with ARNT to regulate gene expression, and genes that are regulated by AhR ligands have AhR response elements (AhRE) in their promotor regions.
Briefly, Hepa1 cells were transfected with a reporter construct consisting of AhRE linked to luciferase. The addition of AhR ligands to the transfected cells induces luciferase production that is directly proportional to the amount of AhR activation. We used this reporter system to identify novel compounds with AhR-activating properties. Transfected Hepa1 cells were plated at a density of 1×10^4 cells/well in 100 μL of cell culture media in 96 well plates and grown overnight. […] Following incubation with the compounds, the media was removed, and cells were harvested with lysis buffer. The lysates were transferred to opaque 96 well plates, where they were assayed well-by-well for luciferase activity by injection of luciferase assay substrate with a 2 sec mixing time and 15 sec integration period on a Tropix TR717 microplate luminometer. Data were expressed as fold induction of luciferase relative to vehicle (0.1% DMSO) treated cells.

aryl hydrocarbon receptor (AhR), sequence (P30561 10-805): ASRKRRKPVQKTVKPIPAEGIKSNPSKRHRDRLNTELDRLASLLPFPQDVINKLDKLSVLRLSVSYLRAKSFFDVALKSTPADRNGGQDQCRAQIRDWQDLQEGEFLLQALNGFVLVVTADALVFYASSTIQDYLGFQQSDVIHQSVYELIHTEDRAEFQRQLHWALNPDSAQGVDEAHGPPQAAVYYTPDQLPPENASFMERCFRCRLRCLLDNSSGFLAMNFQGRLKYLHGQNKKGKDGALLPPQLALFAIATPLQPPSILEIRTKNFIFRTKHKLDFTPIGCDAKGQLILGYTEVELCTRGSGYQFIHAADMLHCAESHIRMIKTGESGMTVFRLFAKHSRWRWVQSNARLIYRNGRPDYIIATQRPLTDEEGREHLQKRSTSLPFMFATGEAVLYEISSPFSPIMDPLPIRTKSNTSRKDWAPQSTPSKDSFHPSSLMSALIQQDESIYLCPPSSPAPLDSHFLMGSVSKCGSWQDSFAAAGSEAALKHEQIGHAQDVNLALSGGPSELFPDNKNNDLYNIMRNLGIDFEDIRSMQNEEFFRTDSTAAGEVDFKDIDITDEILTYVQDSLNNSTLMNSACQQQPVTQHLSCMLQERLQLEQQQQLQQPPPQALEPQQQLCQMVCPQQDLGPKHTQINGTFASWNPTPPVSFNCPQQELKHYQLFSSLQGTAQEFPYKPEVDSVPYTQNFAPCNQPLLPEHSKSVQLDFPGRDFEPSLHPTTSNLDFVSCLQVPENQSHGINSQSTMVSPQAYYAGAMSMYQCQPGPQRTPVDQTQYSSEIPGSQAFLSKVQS
aryl hydrocarbon receptor (AhR), sequence (P53762 whole entry partner): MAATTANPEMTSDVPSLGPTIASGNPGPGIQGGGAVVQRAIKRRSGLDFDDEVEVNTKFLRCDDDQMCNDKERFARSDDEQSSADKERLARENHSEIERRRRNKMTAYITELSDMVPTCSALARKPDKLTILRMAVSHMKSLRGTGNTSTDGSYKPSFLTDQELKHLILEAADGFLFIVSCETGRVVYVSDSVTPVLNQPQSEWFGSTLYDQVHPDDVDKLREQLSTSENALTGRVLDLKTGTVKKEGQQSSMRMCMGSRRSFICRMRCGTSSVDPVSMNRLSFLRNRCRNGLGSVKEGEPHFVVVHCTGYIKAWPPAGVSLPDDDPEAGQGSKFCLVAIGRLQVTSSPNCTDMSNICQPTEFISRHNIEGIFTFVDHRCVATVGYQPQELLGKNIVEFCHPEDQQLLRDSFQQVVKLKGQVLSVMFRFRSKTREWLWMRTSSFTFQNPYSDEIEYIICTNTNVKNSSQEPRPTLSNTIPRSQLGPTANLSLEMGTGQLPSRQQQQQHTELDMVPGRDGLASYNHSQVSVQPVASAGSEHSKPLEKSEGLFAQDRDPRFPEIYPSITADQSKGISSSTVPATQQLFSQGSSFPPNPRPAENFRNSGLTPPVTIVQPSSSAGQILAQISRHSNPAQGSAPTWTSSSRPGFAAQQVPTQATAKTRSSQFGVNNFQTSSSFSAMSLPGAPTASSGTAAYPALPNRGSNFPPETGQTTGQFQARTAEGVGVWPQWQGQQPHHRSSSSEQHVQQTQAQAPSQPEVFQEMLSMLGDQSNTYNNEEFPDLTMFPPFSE

SMILES	Fold @ 1 nM [fold]	Fold @ 100 nM [fold]	Fold @ 10 uM [fold]	Fold relative to benchmark @ 100 nM [fold]
O=C(c1ccc(F)c(F)c1)n1c(-c2cccc3ccccc23)nc2cc(F)ccc21 [Compound 630]	1	5	9	0.56
Cc1ccc(S(=O)(=O)n2c(-c3cccc4ccccc34)nc3cc(F)ccc32)cc1 [Compound 631, 5-fluoro-2-(naphthalen-1-yl)-1-tosyl-1H-benzo[d]imidazole]	1	1	7	0.11
COc1ccc(C(=O)n2c(-c3cc4ccccc4s3)nc3cc(F)ccc32)cc1 [Compound 634]	1	2	22	0.22
COc1ccc(C(=O)n2c(-c3cc4ccccc4s3)nc3ccc(F)cc32)cc1 [Compound 635]	1	2	24	0.22
COc1ccc2c(c1)nc(-c1cccc3ccccc13)n2C(=O)c1ccccc1 [Compound 639]	1	1	5	0.11
O=C(c1ccc(F)c(F)c1)n1c(-c2c3ccccc3cc3ccccc23)nc2cc(Cl)ccc21 [Compound 641]	1	1	21	0.11
O=C(c1ccc(F)c(F)c1)n1c(-c2c3ccccc3cc3ccccc23)nc2ccc(Cl)cc21 [Compound 642]	1	1	27	0.11
COc1ccc(-c2nc3cc(Cl)ccc3n2C(=O)c2ccc(F)c(F)c2)c2ccccc12 [Compound 645]	1	1	15	0.11
COc1ccc(C(=O)n2c(-c3cccc4ccccc34)nc3cc(Cl)ccc32)cc1OC [Compound 682]	1	18	32	0.69
COc1ccc(C(=O)n2c(-c3cccc4ccccc34)nc3ccc(Cl)cc32)cc1OC [Compound 683]	1	26	34	1
O=C(c1ccc(F)c(F)c1)n1c(-c2ccc3ccccc3c2)nc2cc(Cl)ccc21 [Compound 684]	1	2	56	0.08
CN(C)c1ccc(C(=O)n2c(-c3cccc4ccccc34)nc3cc(Cl)ccc32)cc1 [Compound 685]	1	13	28	0.5
O=C(c1ccc(SC(F)(F)F)cc1)n1c(-c2cccc3ccccc23)nc2cc(Cl)ccc21 [Compound 686]	1	24	31	0.92
O=C(c1ccc(SC(F)(F)F)cc1)n1c(-c2cccc3ccccc23)nc2ccc(Cl)cc21 [Compound 687]	1	28	32	1.08
N#Cc1ccc(C(=O)n2c(-c3cccc4ccccc34)nc3cc(Cl)ccc32)cc1 [Compound 688]	2	28	44	1.08
N#Cc1ccc(C(=O)n2c(-c3cccc4ccccc34)nc3ccc(Cl)cc32)cc1 [Compound 689]	1	28	47	1.08
O=C(c1ccc(F)c(F)c1)n1c(-c2cccc3ccccc23)nc2ccc(Br)cc21 [Compound 690]	2	22	30	0.85
O=C(c1ccccc1)n1c(-c2cccc3ccccc23)nc2cc(Br)ccc21 [Compound 691]	2	26	34	1
O=C(c1ccc(F)c(F)c1)n1c(-c2cccc3ccccc23)nc2cc(Cl)c(Cl)cc21 [Compound 692]	3	24	85	0.92

SMILES	Fold @ 1 nM [fold]	Fold @ 100 nM [fold]	Fold @ 10 uM [fold]	Fold relative to benchmark @ 100 nM [fold]
O=C(c1ccc(F)cc1F)n1c(-c2cccc3ccccc23)nc2cc(Cl)ccc21 [Compound 694]	2	32	35	1.23
O=C(c1ccc(F)cc1F)n1c(-c2cccc3ccccc23)nc2cc(Cl)ccc21 [Compound 695]	1	23	30	0.88
O=C(c1ccc(OC(F)(F)F)cc1)n1c(-c2cccc3ccccc23)nc2cc(Cl)ccc21 [Compound 696]	1	22	51	0.85
Cc1ccc(C(=O)n2c(-c3cccc4ccccc34)nc3cc(Cl)ccc32)cc1 [Compound 697]	1	23	22	0.88
Cc1ccc(C(=O)n2c(-c3cccc4ccccc34)nc3ccc(Cl)cc32)cc1 [Compound 698]	1	26	30	1
O=C(c1ccc(F)c(F)c1)n1c(-c2cccc3ccccc23)nc2cc(OC(F)(F)F)ccc21 [Compound 699]	1	22	24	0.85
O=C(c1ccc(F)c(F)c1)n1c(-c2cccc3ccccc23)nc2ccc(OC(F)(F)F)cc21 [Compound 700]	1	16	22	0.62
Cc1ccc2c(c1)nc(-c1cccc3ccccc13)n2C(=O)c1ccccc1 [Compound 701]	1	2	35	0.08
COc1ccc(C(=O)n2c(-c3cccc4ccccc34)nc3cc(C)ccc32)cc1 [Compound 702]	1	1	–	0.04
O=C(c1ccccc1)n1c(-c2cccc(C(F)(F)F)c2)nc2cc(Cl)ccc21 [Compound 763]	1	2	22	0.08
COc1ccc(C(=O)n2c(-c3cccc(C(F)(F)F)c3)nc3cc(Cl)ccc32)cc1 [Compound 764]	1	2	20	0.08
COc1ccc(C(=O)n2c(-c3cccc(C(F)(F)F)c3)nc3ccc(Cl)cc32)cc1 [Compound 765]	1	2	14	0.08
O=C(c1ccc(F)c(F)c1)n1c(-c2ccccc2-c2ccccc2)nc2cc(Cl)ccc21 [Compound 766]	1	2	31	0.08
O=C(c1ccc(F)c(F)c1)n1c(-c2ccnc3ccccc23)nc2cc(Cl)ccc21 [Compound 767]	1	2	23	0.08
N#Cc1ccc2c(c1)nc(-c1cccc3ccccc13)n2C(=O)c1ccccc1 [Compound 770]	1	2	2	0.08
O=C(c1ccc(F)c(F)c1)n1c(-c2cccc(-c3ccccc3)c2)nc2cc(Cl)ccc21 [Compound 771]	1	1	2	0.04
O=C(c1ccc(F)c(F)c1)n1c(-c2cccc(-c3ccccc3)c2)nc2ccc(Cl)cc21 [Compound 772]	1	1	1	0.04
O=C(C1CC1)n1c(-c2cccc3ccccc23)nc2cc(Cl)ccc21 [Compound 773]	1	25	40	1
